Tests used:
[1] = target: T1, aggregated tau overexpressed in HEK cells (Homo sapiens, UniProt P10636); experiment: Intracellular photooxygenation reaction evaluated by Western blotting; format: cell-based; conditions: for crosslinked product (more than 250 kDa) of the photooxygenation reaction: 595 nm light 15 minutes
T1 construct: expressed in transfected cells; host or cells: HEK cells (line called Fs17)
Method: An intracellular oxygenation reaction by the compounds PzT, OMe, Q, and J of the present invention was performed using HEK cells in which aggregated tau was overexpressed. Specifically, 10 uM of the compound of the present invention was added to a cell medium, and then irradiated with light at 595 nm for 15 minutes. After the reaction, viable cells were collected and lysed, and then the intracellular photooxygenation reaction was evaluated by measurement with Western blotting (FIG. 2). In a case where the compound of the present invention was not added, tau was detected between 75 kDa and 100 kDa by the 5A6 antibody that is a tau specific antibody, and a theoretical molecular weight of the overexpressed tau was about 70 kDa, and therefore, the tau was identified as a monomer.
Similarly, the compounds of the present invention C2OH, O, and O2 were also subjected to an intracellular oxygenation reaction. The cells overexpressing aggregated tau were incubated with a medium containing 1 μM of the compound of the present invention for 10 minutes. Thereafter, light of 595 nm was applied for 15 minutes. Reaction progress was identified and quantified by Western blotting measurements (FIG. 3). […] As a result, it was confirmed that a crosslinked product, which is one of products of a photooxygenation reaction, was detected in a region of more than 250 kDa on the right side of the lane to which the compound was added, whereas no crosslinked body was provided under non-light irradiation conditions, that is, on the left side of each lane in all the compounds, and the reaction proceeded in a light-dependent manner.

[2] = UV-vis spectrum, verification of absorption wavelength; format: physicochemical
Text: It can be said that the longer the wavelength of light used for a living body, the lower the cytotoxicity and the better the tissue permeability.

overexpressed tau = target: T2, overexpressed tau (Homo sapiens, UniProt P10636); experiment: LC-MS/MS analysis of methionine oxidation of overexpressed tau after intracellular reaction; format: cell-based; conditions: monomeric tau, trypsin digestion, FIG. 6
T2 construct: expressed in transfected cells; host or cells: HEK cells (line called Fs17)
T2 sequence (P10636 1-412 isoform P10636-7): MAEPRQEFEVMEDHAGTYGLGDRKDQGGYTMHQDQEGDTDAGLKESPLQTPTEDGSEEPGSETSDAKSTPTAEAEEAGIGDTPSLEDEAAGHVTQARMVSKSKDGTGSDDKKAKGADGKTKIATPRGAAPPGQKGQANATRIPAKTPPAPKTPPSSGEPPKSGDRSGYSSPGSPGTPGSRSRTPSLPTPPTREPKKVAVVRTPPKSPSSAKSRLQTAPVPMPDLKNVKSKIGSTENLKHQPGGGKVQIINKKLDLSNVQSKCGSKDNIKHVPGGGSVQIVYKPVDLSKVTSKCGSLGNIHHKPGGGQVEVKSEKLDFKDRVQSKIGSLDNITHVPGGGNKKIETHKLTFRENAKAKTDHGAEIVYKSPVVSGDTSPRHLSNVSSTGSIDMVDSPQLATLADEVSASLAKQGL
Method: LC-MS/MS analysis was performed on the reaction product in order to confirm the production of side chain oxygenates that were difficult to specifically detect as a result of overlapping with unreacted substances in Western blotting. Since side chain oxygenates are mainly produced by oxidation of methionine side chains to sulfoxide, it was focused on 4 methionines contained in overexpressed tau having a total length of 412 amino acids. The intracellular protein after the reaction was separated according to the molecular weight by SDS-page, monomeric tau was cut out by trypsin enzyme digestion, and LC-MS/MS measurement was performed. A ratio of the detection intensity of the methionine oxidant was calculated from the sum of the detection intensities of the methionine reductant and the oxidant obtained from MS1 in the LC-MS/MS spectrum (FIG. 6).

[3] = 10 uM compound in cell medium, 5A6 antibody, FIG. 2

T1 sequence (P10636 2-412 isoform P10636-7): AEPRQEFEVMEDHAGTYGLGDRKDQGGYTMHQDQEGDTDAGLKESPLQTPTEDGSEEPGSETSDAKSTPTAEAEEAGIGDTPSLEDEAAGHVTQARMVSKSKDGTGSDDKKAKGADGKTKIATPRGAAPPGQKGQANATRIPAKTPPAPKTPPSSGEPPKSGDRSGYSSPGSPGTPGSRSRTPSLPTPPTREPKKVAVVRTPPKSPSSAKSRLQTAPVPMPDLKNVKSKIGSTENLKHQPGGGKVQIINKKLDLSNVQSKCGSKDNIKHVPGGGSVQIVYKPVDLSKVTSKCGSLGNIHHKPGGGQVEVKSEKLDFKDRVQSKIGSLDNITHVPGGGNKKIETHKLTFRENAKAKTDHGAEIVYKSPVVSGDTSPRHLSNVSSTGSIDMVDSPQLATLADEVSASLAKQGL

Compound	photooxygenation activity relative to the compound Q ([1]; 1 μM compound, 595 nm 15 minutes, quantified by Western blotting)	crosslinked product (more than 250 kDa) of the photooxygenation reaction ([1]; 1 μM compound, 10 minutes incubation, light-dependent, FIG. 3)	λmax (nm), maximum absorption wavelength [2]	crosslinked product (more than 250 kDa) of the photooxygenation reaction [1, 3]	oxygenation level of methionine compared with control (Vehicle) (overexpressed tau)
OCCN1CCCc2cc(/C=C/C=C/c3nc4ncc(Br)nc4s3)ccc21 [Compound C2OH, 2-(6-((1E,3E)-4-(6-bromothiazolo[4,5-b]pyrazin-2-yl)butadien-1,3-dien-1-yl)-3,4-dihydroquinolin-1(2H)-yl)ethane-1-ol]	twice or more	detected			
Brc1cnc2nc(/C=C/C=C/c3cc4c5c(c3)CCCN5CCC4)sc2n1 [Compound J, 6-Bromo-2-((1E,3E)-4-(2,3,6,7-tetrahydro-1H,5H-pyrido[3,2,1-ij]quinolin-9-yl)butadien-1,3-dien-1-yl)thiazolo[4,5-b]pyrazine]			508 nm	detected	
COc1cc(N(C)C)cc(OC)c1/C=C/C=C/c1nc2ncc(Br)nc2s1 [Compound OMe, 4-((1E,3E)-4-(6-Bromothiazolo[4,5-b]pyrazin-2-yl)butadien-1,3-dien-1-yl)-3,5-dimethoxy-N,N-dimethylaniline]			495 nm	detected	
CN(C)c1ccc(/C=C/C=C/c2nc3ccc(Br)nc3s2)cc1 [Compound PT, 4-((1E,3E)-4-(5-bromothiazolo[5,4-b]pyridin-2-yl)butadien-1,3-dien-1-yl)-N,N-dimethylaniline]			437 nm		
CN(C)c1ccc(/C=C/C=C/c2nc3ncc(Br)nc3s2)cc1 [Compound PzT, 4-((1E,3E)-4-(6-Bromothiazolo[4,5-b]pyrazin-2-yl)butadien-1,3-dien-1-yl)-N,N-dimethylaniline]			468 nm	detected	
CN1CCCc2cc(/C=C/C=C/c3nc4ncc(Br)nc4s3)ccc21 [Compound Q, 6-Bromo-2-((1E,3E)-4-(1-methyl-1,2,3,4-tetrahydroquinolin-6-yl)butadiene-1,3-dien-1-yl)thiazolo[4,5-b]pyrazine]			500 nm	detected	did not change
